Our source for the EC50 values is US9133115B2 (ACHILLION PHARMACEUTICALS, INC., priority 2008, dated 2015).

Some results are limits rather than exact numbers.

The subject of the test is HCV replicon. In words: HCV replicon replication assay (NPT ELISA) in Huh-7 replicon-containing cells. To be noted: Hepatitis C virus, 72 h; HCV replicon in Huh-7 cells, three days incubation; read-out: EC50. It is filed as cell-based. An outline of the steps:
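Huh-7 cells carrying a bicistronic HCV replicon (HCV-IRES-neo, EMCV-IRES-driven NS3–NS5B, 3′-NTR) were seeded at 6000-7500 cells/well, grown 24 h to 60-70% confluence, then treated with graded compound concentrations. Replication was read as NPT level by capture ELISA (rabbit anti-NPTII, Eu-N1 secondary); interferon alpha served as positive control.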
With `C=C[C@@H]1C[C@]1(NC(=O)[C@@H]1C[C@@H](NC(=O)c2cc(-c3ccccc3)nc3ccccc23)CN1C(=O)[C@@H](CC(=O)N1CCC(F)CC1)C(C)(C)C)C(=O)NS(=O)(=O)C1CC1` [Compound 205, N-((3R,5S)-1-((S)-2-tert-butyl-4-(4-fluoropiperidin-1-yl)-4-oxobutanoyl)-5-((1R,2S)-1-(cyclopropylsulfonyl-carbamoyl)-2-vinyl-cyclopropyl-carbamoyl)pyrrolidin-3-yl)-2-phenylquinoline-4-carboxamide], the EC50 was below 1000 nM.
For `C=C[C@@H]1C[C@]1(NC(=O)[C@@H]1C[C@@H](Oc2cc(-c3ccccc3)nc3cc(OC)ccc23)CN1C(=O)[C@@H](CC(=O)N1CCCC[C@H]1c1cccnc1)C(C)(C)C)C(=O)NS(=O)(=O)C1CC1` [Compound 140, (2S,4R)-1-((S)-2-tert-butyl-4-oxo-4-((S)-2-(pyridin-3-yl)piperidin-1-yl)butanoyl)-N-((1R,2S)-1-(cyclo-propylsulfonyl-carbamoyl)-2-vinylcyclopropyl)-4-(7-methoxy-2-phenylquinolin-4-yloxy)pyrrolidine-2-carboxamide], the EC50 is below 1000 nM.
The result for `C=C[C@@H]1C[C@]1(NC(=O)[C@@H]1C[C@@H](Oc2nc(-c3ccccn3)nc3cc(OC)ccc23)CN1C(=O)[C@@H](CC(=O)N1CCCCC1)C(C)(C)C)C(=O)NS(=O)(=O)C1CC1` [Compound 144, (2S,4R)-1-((S)-2-tert-butyl-4-oxo-4-(piperidin-1-yl)butanoyl)-N-((1R,2S)-1-(cyclo-propylsulfonyl-carbamoyl)-2-vinyl-cyclopropyl)-4-(7-methoxy-2-(pyridin-2-yl)quinazolin-4-yloxy)pyrrolidine-2-carboxamide] reads below 1000 nM; that for `C=CC1C[C@]1(NC(=O)[C@@H]1C[C@@H](Oc2cc(-c3ccccc3)nc3cc(OC)ccc23)CN1C(=O)[C@@H](CC(=O)N1CC(C)CC(C)C1)C(C)(C)C)C(=O)NS(=O)(=O)C1CC1` (stereo partly drawn) [Compound 185], below 1000 nM; that for `COc1ccc2c(O[C@@H]3C[C@@H](C(=O)N[C@H](C(=O)NS(=O)(=O)C4CC4)C(C)(C)C)N(C(=O)[C@@H](CC(=O)N4CCCCC4)C(C)(C)C)C3)cc(-c3ccccc3)nc2c1` [Compound 115, (2S,4R)-1-((S)-2-tert-butyl-4-oxo-4-(piperidin-1-yl)butanoyl)-N-((S)-1-(cyclopropanesulfon-amido)-3,3-dimethyl-1-oxobutan-2-yl)-4-(7-methoxy-2-phenylquinolin-4-yloxy)pyrrolidine-2-carboxamide], 1000 to 10000 nM.
The result for `C=CC1CC1(NC(=O)[C@@H]1C[C@@H](OC(=O)N2Cc3cccc(F)c3C2)CN1C(=O)[C@@H](CC(=O)N1CCCCC1)C(C)(C)C)C(=O)NS(=O)(=O)C1CC1` (stereo partly drawn) [Compound 50, (3R,5S)-1-((S)-2-tert-butyl-4-oxo-4-(piperidin-1-yl)butanoyl)-5-(1-(cyclopropyl-sulfonylcarbamoyl)-2-vinylcyclopropyl-carbamoyl)pyr-rolidin-3-yl 4-fluoroisoindoline-2-carboxylate] reads below 1000 nM; that for `C=C[C@@H]1C[C@]1(NC(=O)[C@@H]1C[C@@H](Oc2cc(-c3ccccc3)nc3ccc(C)cc23)CN1C(=O)[C@@H](CC(=O)N1CCCCC1)C(C)(C)C)C(=O)NS(=O)(=O)C1CC1` [Compound 226, (2S,4R)-1-((S)-2-tert-butyl-4-oxo-4-(piperidin-1-yl)butanoyl)-N-((1R)-1-(cyclopropyl-sulfonylcarbamoyl)-2-vinylcyclopropyl)-4-(6-methyl-2-phenylquinolin-4-yloxy)pyrrolidine-2-carboxamide], below 1000 nM.
To `C=C[C@@H]1C[C@]1(NC(=O)[C@@H]1C[C@@H](Oc2cc(-c3ccccc3)nc3cc(OC)ccc23)CN1C(=O)[C@@H](CC(=O)N1CCN(S(=O)(=O)CC)CC1)C(C)(C)C)C(=O)NS(=O)(=O)C1CC1` [Compound 195, (2S,4R)-1-((S)-2-tert-butyl-4-(4-(ethylsulfonyl)piper-azin-1-yl)-4-oxobutanoyl)-N-((1R)-1-(cyclopropylsulfonyl-carbamoyl)-2-vinylcyclopropyl)-4-(7-methoxy-2-phenylquinolin-4-yloxy)pyrrolidine-2-carboxamide] belongs below 1000 nM; to `C=C[C@@H]1C[C@]1(NC(=O)[C@@H]1C[C@@H](Oc2cc(-c3ccccc3)nc3cc(OC)ccc23)CN1C(=O)[C@@H](CC(=O)N1CCC(F)(F)C1)C(C)(C)C)C(=O)NS(=O)(=O)C1CC1` [Compound 89, (2S,4R)-1-((S)-2-tert-butyl-4-(3,3-difluoropyrrolidin-1-yl)-4-oxobutanoyl)-N-((1R,2S)-1-(cyclopropylsulfonyl-carbamoyl)-2-vinylcyclopropyl)-4-(7-methoxy-2-phenylquinolin-4-yloxy)pyrrolidine-2-carboxamide], below 1000 nM; to `C=C[C@@H]1C[C@]1(NC(=O)[C@@H]1C[C@@H](Oc2cc(-c3ccccc3)nc3cc(OC)ccc23)CN1C(=O)[C@@H](CC(=O)N1CCCC2CCCCC21)C(C)(C)C)C(=O)NS(=O)(=O)C1CC1` (stereo partly drawn) [Compound 183, (2S,4R)-1-((2S)-2-tert-butyl-4-(octa-hydroquinolin-1(2H)-yl)-4-oxobutanoyl)-N-((1R,2S)-1-(cyclopropylsulfonyl-carbamoyl)-2-vinylcyclopropyl)-4-(7-methoxy-2-phenylquinolin-4-yloxy)pyrrolidine-2-carboxamide], below 1000 nM.
`C=C[C@@H]1C[C@]1(NC(=O)[C@@H]1C[C@@H](Oc2cc(-c3ccccc3)nc3cc(OC)ccc23)CN1C(=O)[C@@H](CC(=O)N1CC[C@@H](NC(=O)OC(C)(C)C)C1)C(C)(C)C)C(=O)NS(=O)(=O)C1CC1` [Compound 184, tert-butyl (R)-1-((S)-3-((2S,4R)-2-((1R,2S)-1-(cyclo-propylsulfonyl-carbamoyl)-2-vinyl-cyclopropyl-carbamoyl)-4-(7-methoxy-2-phenylquinolin-4-yloxy)pyrrolidine-1-carbonyl)-4,4-dime-thylpentanoyl)pyr-rolidin-3-ylcarbamate]: the EC50 was below 1000 nM.
To `C=C[C@@H]1C[C@]1(NC(=O)[C@@H]1C[C@@H](Oc2cc(-c3ccccc3)nc3cc(OC)ccc23)CN1C(=O)[C@@H](CC(=O)N1CCCCC1)C(C)(C)C)C(=O)NS(=O)(=O)c1ccccc1` [Compound 62, (2S,4R)-1-((S)-2-tert-butyl-4-oxo-4-(piperidin-1-yl)butanoyl)-4-(7-methoxy-2-phenylquinolin-4-yloxy)-N-((1R,2S)-1-(phenylsulfonyl-carbamoyl)-2-vinyl-cyclopropyl)pyr-rolidine-2-carboxamide] belongs below 1000 nM; to `C=C[C@@H]1C[C@]1(NC(=O)[C@@H]1C[C@@H](Oc2cc(-c3ccccc3)nc3cc(OC)ccc23)CN1C(=O)[C@@H](CC(=O)N1C[C@@H]2C[C@H]1CN2C(=O)OC(C)(C)C)C(C)(C)C)C(=O)NS(=O)(=O)C1CC1` [Compound 172, (1S,4S)-tert-butyl 5-((S)-3-((2S,4R)-2-((1R,2S)-1-(cyclopropyl-sulfonylcarbamoyl)-2-vinylcyclopropyl-carbamoyl)-4-(7-methoxy-2-phenylquinolin-4-yloxy)pyrrolidine-1-carbonyl)-4,4-dimethylpentanoyl)-2,5-diazabi-cyclo[2.2.1]heptane-2-carboxylate], below 1000 nM; to `C=CC1CC1(NC(=O)C1C[C@@H](Oc2cc(-c3ccccc3)nc3cc(OC)ccc23)CN1C(=O)[C@@H](CC(=O)N1CCCCC1)CC1CCCCC1)C(=O)NS(=O)(=O)C1CC1` (stereo partly drawn) [Compound 54, (4R)-1-((R)-2-(cyclohexylmethyl)-4-oxo-4-(piperidin-1-yl)butanoyl)-N-(1-(cyclopropyl-sulfonylcarbamoyl)-2-vinylcyclopropyl)-4-(7-methoxy-2-phenylquinolin-4-yloxy)pyrrolidine-2-carboxamide], below 1000 nM.
As to `C=C[C@H]1C[C@]1(NC(=O)[C@@H]1C[C@@H](Oc2cc(-c3ccccc3)nc3cc(OC)ccc23)CN1C(=O)[C@@H](CC(=O)N1CCCCC1)CC1CCCC1)C(=O)NS(=O)(=O)C1CC1` [Compound 57, (2S,4R)-1-((R)-2-(cyclopentylmethyl)-4-oxo-4-(piperidin-1-yl)butanoyl)-N-((1R,2R)-1-(cyclopropyl-sulfonylcarbamoyl)-2-vinylcyclopropyl)-4-(7-methoxy-2-phenylquinolin-4-yloxy)pyrrolidine-2-carboxamide], the EC50 is below 1000 nM.
To `C=C[C@@H]1C[C@]1(NC(=O)[C@@H]1C[C@@H](Oc2cc(-c3ccccc3)nc3cc(OC)ccc23)CN1C(=O)[C@@H](CC(=O)N1CCCCC1c1nc2cc(F)ccc2[nH]1)C(C)(C)C)C(=O)NS(=O)(=O)C1CC1` (stereo partly drawn) [Compound 125, (2S,4R)-1-((2S)-2-tert-butyl-4-(2-(5-fluoro-1H-benzo[d]imidazol-2-yl)piperidin-1-yl)-4-oxobutanoyl)-N-((1R,2S)-1-(cyclo-propylsulfonyl-carbamoyl)-2-vinylcyclopropyl)-4-(7-methoxy-2-phenylquinolin-4-yloxy)pyrrolidine-2-carboxamide] belongs below 1000 nM; to `C=C[C@@H]1C[C@]1(NC(=O)[C@@H]1C[C@@H](N(Cc2ccccn2)C(=O)n2c3ccccc3c3ccccc32)CN1C(=O)[C@@H](CC(=O)N1CCC(F)(F)C1)C(C)(C)C)C(=O)NS(=O)(=O)C1CC1` [Compound 193, N-((3R,5S)-1-((S)-2-tert-butyl-4-(3,3-difluoropyrrolidin-1-yl)-4-oxobutanoyl)-5-((1R)-1-(cyclopropylsulfonyl-carbamoyl)-2-vinylcyclopropyl-carbamoyl)pyrrolidin-3-yl)-N-(pyridin-2-ylmethyl)-9H-carbazole-9-carboxamide], below 1000 nM.
Turning to `C=C[C@@H]1C[C@]1(NC(=O)[C@@H]1C[C@@H](NC(=O)n2c3ccccc3c3ccccc32)CN1C(=O)[C@@H](CC(=O)N1CCCCC1)C(C)(C)C)C(=O)NS(=O)(=O)C1CC1` [Compound 177, N-((3R,5S)-1-((S)-2-tert-butyl-4-oxo-4-(piperidin-1-yl)butanoyl)-5-((1R,2S)-1-(cyclopropyl-sulfonylcarbamoyl)-2-vinylcyclopropyl-carbamoyl)pyr-rolidin-3-yl)-9H-carbazole-9-carboxamide], the EC50 is below 1000 nM.

As usually defined, the EC50 is the concentration needed to bring the measured effect to its halfway point.
